≈ marks a conversion by molar mass, not a printed value.
Assays:
[1] = system: rats sensitized to the HDM allergen extract; assay: HDM extract challenge in rats sensitized to the HDM allergen extract (BAL cells and mediators); type: in vivo, BN rats
Text: Control animals received saline vehicle treatment.

[2] = plasma stability (rat); type: in vitro ADME
[3] = permeability (Papp); type: in vitro ADME; conditions: not told
[4] = system: sensitized Balb/c mice; assay: HDM extract challenge in sensitized Balb/c mice (BAL flow cytometry); type: in vivo; conditions: HDM 10; i.t. 2 h prior to challenge; BAL 48 h
Description: Mice (female Balb/c 20 ± 2 g, Charles River) were isolator maintained in ventilated cages (Allentown IVC Racks, 36 Mini Isolator System, USA) that had been prepared for use by prior autoclaving. Environmental controls were 22–24 °C/60–80% relative humidity on a 12 h light/dark cycle. Animals were allowed ad libitum access to reverse osmosis-purified water and food (MF-18 laboratory rodent diet). Where prestudy serum samples were mandated, these were taken from the retro-orbital sinus on acclimatization in the isolator facility. Animals were randomly assigned to groups and sensitized to the HDM extract or treated with the vehicle on days 0, 7, and 14. […] Animals were anesthetized with propofol 48 h later (AstraZeneca, 10 mg/mL, 50 μL/mouse, i.v.), and terminal blood samples were taken from the retro-orbital sinus. BAL (3 × 0.5 mL aliquots of PBS) was performed, and the returns were combined for enumeration.
Flow cytometry (FACS) of BAL fluid was performed with a BD FACSAria instrument (Becton Dickinson Biosciences, USA) and the FACSDiva software. Analyses were performed by operators who were unaware of the sample identity. […]

[5] = plasma stability (human); type: in vitro ADME
[6] = system: rat alveolar macrophage line NR8383; assay: Cellular stability in macrophages; type: in vitro ADME; conditions: 100 nM compound
Description: (§1) Cellular Stability of Compounds
(§2) The cellular stability of compounds in vitro was tested using rat airway epithelial cell line L2 and rat alveolar macrophage line NR8383 (ATCC©CRL-2192™). Assays were performed in replicate and the data expressed as mean ± s.e. mean. L2 cells were cultured to confluence in T25 flasks or 24 -well plates using Kaighn’s modification of Ham’s F12 medium (F12K). Cells were prepared for assay by washing 3 times with serum-free F12K. NR8383 Airway macrophages were grown in suspension culture in F12K, collected by centrifugation, washed in serum-free medium and aliquoted into test plates (1.4 x 10^6 cells/well). Both cell lines were treated with ADI compounds (100 nM) in serum -free F12K in a 5% CO 2 environment at 37 °C. Samples were removed for quantitative analysis by LC -MS-MS using appropriate multiple reaction monitoring transitions for each analyte. […]
(§3) n-Octanol (0.7 mL), pre -saturated with 10 mM PBS, pH7.4, was added to test compound (~1 mg) in a 2 mL HPLC vial followed by PBS (0. 7 mL), which had been pre -saturated with n -octanol. The mixture was shaken for 90 min before centrifugation for 10 min at 4,000 rpm. The upper organic layer (0.2 mL) and the aqueous layer (0.5 mL) were removed for analysis by LC-MS. Peak identity was confirmed by mass spectrometry and concentration assessed spectrophotometrically using a diode array detector. The log

[7] = hepatocyte stability (human); type: in vitro ADME; conditions: hepatocytes
[8] = hepatocyte stability (rat); type: in vitro ADME; conditions: hepatocytes
[9] = system: rat airway epithelial cell line L2; assay: Cellular stability in L2 cells; type: in vitro ADME; conditions: 100 nM compound
Description: as §1, §2, §3

[10] = thermodynamic solubility; type: physicochemical; conditions: thermodynamic from solid
[11] = HDM 1, dosed 2 or 4 h before challenge, BAL 48 h
[12] = HDM 10, single i.t. aerosol dose 2 h before (15 μg/kg compound 1, 46 μg/kg compound 2), BAL 48 h
[13] = stronger challenge HDM 10, 15 μg/kg i.t. aerosol 2 h prior
[14] = read-out: hepatocyte intrinsic clearance

## CC(C)[C@H](NC(=O)[C@H](C)NC(=O)[C@@H](NC(=O)c1ccccc1)C(C)(C)C)C(=O)C(=O)NCc1ccccc1 [Compound 1, N-{(S)-1-[(S)-1-((S)-1-benzylaminooxalyl-2-methyl-propylcarbamoyl)-ethylcarbamoyl]-2,2-dimethyl-propyl}-benzamide]
[1]; HDM 1 (1 μg Der p 1), dosed i.t. aerosol 2 or 4 h before challenge, BAL 48 h
  BAL eosinophil responses: suppressed
[1]; [11]
  BAL neutrophil recruitment: No effect
  CCL-2 in BAL fluid: suppressed
  CCL-20 in BAL fluid: suppressed
  IL-13 in BAL fluid: suppressed
  IL-33 in BAL fluid: suppressed
[1]; HDM 1, dosed 2 h before challenge, BAL 48 h
  TSLP in BAL fluid: suppressed
[1]; HDM 1, dosed 4 h before challenge, BAL 48 h, 'except' = not suppressed
  TSLP in BAL fluid: except for TSLP
[1]; HDM 10 (10 μg Der p 1) i.t. aerosol, single i.t. aerosol dose 2 h before (15 μg/kg compound 1, 46 μg/kg compound 2), BAL 48 h
  changes in BAL cells after HDM challenge: attenuated
[1]; [12]
  BAL eosinophils after HDM challenge: eosinophil suppression
  BAL monocytes/macrophages after HDM challenge: No effects
  BAL neutrophil responses after HDM challenge: not significant
[1]; [13]
  IL-6 responses in BAL: unaffected
  IL-13 in BAL: inhibitory effects
  IL-33 in BAL: inhibitory effects
  TSLP in BAL: inhibitory effects
[2]
  remaining at 2 h: 100%
[3]
  Papp: 6.2 ×10⁻⁶ cm/s
[4]
  doses required for good activity against the HDM extract: > 0.01 mg/kg
[5]
  remaining at 2 h: 100%
[6]
  cell stability: 100; 100
[7]
  half-life: 3.02 h
[7]; [14]
  CLint scaled: 11.7 mL/min/kg
[8]
  half-life: 1.97 h
[8]; [14]
  CLint scaled: 28.2 mL/min/kg
[9]
  cell stability: 100; 100
[10]
  solubility thermodynamic: 84 µM (≈ 43.9 µg/mL)

Source: paper PMC9469500, “Targeting an Initiator Allergen Provides Durable and Expansive Protection against House Dust Mite Allergy” (ACS Pharmacology & Translational Science, 2022)
